# Legend:
# [1] = target: CSR3 (class 1 RNase III of Sweet potato chlorotic stunt virus) (Sweet potato chlorotic stunt virus, UniProt Q8JJW8); test: biochemical; format: biochemical; settings: for DSS (drug-sensitivity score): dose-response 1.25 nM to 50 µM, Breeze software
# Method: A dose–response assay was carried out with the top 109 compounds (concentration range 1.25 nM to 50 µM). The data were analysed with Breeze software, which generates dose–response curves and calculates the half‐maximal inhibitory concentration (IC50) and drug‐sensitivity score (DSS) for every compound. Considering that IC50 alone cannot comprehensively evaluate the drug sensitivity of the dose–response model in HTS assay, DSS was developed by Yadav et al. (2014) as a systematic algorithmic solution that integrated five factors: IC50, the slope at IC50, minimum activity level, and top and bottom asymptotes of dose–response model. The DSS values ranged from 0 to 19.2. The three structures differ (Figure 6, starred compounds). […] Table S1 lists the 109 compounds from the dose–response screens for CSR3, including information for compound identity, IC50, DSS, and dose–response curves.
# For the HTS assay, plates (10 µM compound in each well) were prepared with an Echo liquid handler (Labcyte) at the FIMM (Institute for Molecular Medicine Finland) High‐Throughput Biomedicine unit. CSR3 and annealed siRNA were diluted to […] and 750 nM, respectively, in reaction buffer (50 mM Tris‐HCl, 125 mM NaCl, 25 mM MgCl2, pH 8.0). CSR3 solutions were dispensed into the wells of plates (10 µl CSR3 per well). Plates were incubated at room temperature for 15 min with shaking (450 rpm). Subsequently, 10 µl substrate was dispensed per well. […] The dose–response assay with six compound concentrations (range, 1.25 nM to 50 µM) was carried out with the same conditions. Plates were sealed, centrifuged briefly, and then, immediately analysed with a PHERAstar FS (BMG Labtech) with a fluorescence‐intensity optic module (excitation at 485 ± 6 nm, detection at 520 ± 5 nm) for 12 cycles (c.17 min total) at 37 °C. All dispensing was done using the BioTek MultiFlo FX. All screening plates contained positive‐control wells (lacking CSR3) and negative‐control wells (25 nl dimethyl sulphoxide, vehicle), which were used as standards to calculate the PI of compounds.
# The PI of each compound for CSR3 was calculated according to Equation 2. A PI threshold of 30% was used as the cut‐off value for one concentration of HTS. Furthermore, the dose–response curves of PI in function of compound concentration were evaluated with DSS according to Yadav et al. (2014).(2) PI=1001-Ss-Sc+/SC--Sc+% where Sc + is the mean of the slope of the positive control, Sc − is the mean of the slope of the negative control, and Ss is the mean of the slope of samples.
# [2] = test system: Cytokine/receptor Binary Complex of humans (4KC3_B); parameters: method as in PubChem database; settings: ref PubChem database; cited from earlier work
# [3] = test system: HIV-1 reverse transcriptase; parameters: method as in PubChem database; settings: ref PubChem database; cited from earlier work
# [4] = test system: human heat shock 70 kDa protein; parameters: method as in PubChem database; settings: ref PubChem database; cited from earlier work
# CSR3 = CSR3 kinetics with labelled siRNA substrate (Michaelis-Menten); format: biochemical, Sweet potato chlorotic stunt virus; settings: 50 nM CSR3, 50-800 nM labelled siRNA
# Method: To monitor the kinetics of CSR3 endoribonuclease activity, two‐fold dilutions (yielding 50–800 nM) of the labelled siRNA substrate were tested with 50 nM CSR3. As expected, start points of raw fluorescence increased with the FRET‐siRNA concentration (Figure 4a). Moreover, the slope of the raw fluorescence between all neighbouring detection cycles was calculated for all cycle numbers. […] Finally, the maximal slope for every labelled siRNA concentration was used to determine the catalytic rate of CSR3.
# The HTS assay was designed to maximize siRNA cleavage by CSR3. We used a donor–quencher fluorogenic siRNA as the substrate for CSR3. […] To assess CSR3 activity, five labelled siRNA concentrations (50–800 nM) were used with 50 nM CSR3. To test the reproducibility and precision of the assay, full plates containing only negative (50 nM CSR3) and positive reactions (lacking CSR3) were tested with 375 nM labelled siRNA. […]
# The kinetic constant (K d) for CSR3 was calculated using the three‐parameter Michaelis–Menten model (MM.3) included in the R package dcr (Ritz et al., 2015). The statistical significance of differences between values was assessed with one‐way ANOVA using the aov function in the R package.
# Chain of CSR3 (class 1 RNase III of Sweet potato chlorotic stunt virus) (Q8JJW8 entry or part of it): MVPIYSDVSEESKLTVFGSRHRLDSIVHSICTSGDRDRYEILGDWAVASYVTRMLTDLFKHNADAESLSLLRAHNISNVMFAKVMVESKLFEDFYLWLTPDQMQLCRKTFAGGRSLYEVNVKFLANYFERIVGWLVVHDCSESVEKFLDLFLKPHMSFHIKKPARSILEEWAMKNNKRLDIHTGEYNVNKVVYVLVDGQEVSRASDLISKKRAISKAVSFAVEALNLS
Compound,IC50 [1],DSS (drug-sensitivity score) [1],other results
CN1C(=O)C(=CNc2ccc(F)cc2)C(=O)N(C)C1=O [FIMM059523],> 50000 nM,0,–
O=C(O)c1ccc(C2Nc3c(Br)cccc3C3C=CCC32)cc1 (stereo not drawn) [FIMM022230],1860 nM,13.8,–
c1cnc2[nH]c(Nc3ccc(Nc4nc5cccnc5[nH]4)cc3)nc2c1 [FIMM092170],2840 nM,12.9,–
COc1cc(C=C2C(=O)NC(=S)NC2=O)ccc1OCc1ccccc1[N+](=O)[O-] [FIMM101864],3850 nM,11.2,–
CC(C)(C)C1CCc2c(sc(NC(=O)C3CC=CCC3C(=O)O)c2C(N)=O)C1 (stereo not drawn) [FIMM104970],–,0,–
Cc1ccc([C@@H]2Nc3ccc(C(=O)O)cc3[C@@H]3C=CC[C@@H]32)cc1 [FIMM031755],1270 nM,–,activity in inhibitor screening assay [2]: effective at micromolar concentrations
CN1CCc2cccc3c2[C@H]1Cc1ccc(O)c(O)c1-3 [FIMM000096],2900 nM,12.7,–
CCn1c(S)nnc1CCNC(=O)c1cccs1 [FIMM099662],3070 nM,11.7,–
Cc1ccc(C)c(C(=O)CSc2nnc[nH]2)c1 [FIMM027745],647 nM,19.2,activity in inhibitor screen [3]: inactive; activity in inhibitor screen [4]: inactive
O=S(=O)(O)c1cccc2cc(O)ccc12 [FIMM072577],699 nM,18.3,–
CCn1c(C)nc2cc(S(N)(=O)=O)ccc21 [FIMM028155],782 nM,17.6,–
"labelled siRNA: 22 bp siRNA with two-nucleotide 3' overhang, FAM reporter and BHQ1 quencher on the sense strand; CSR3 substrate (sense CGUAGUGGAAGUGGGAGAGGTC; antisense CCUCUCCCACUUCCACUACGTG; FAM reporter and BHQ1 quencher on sense strand, positions not given here)",–,–,Km (CSR3; Michaelis-Menten model MM.3): 229 nM; Vmax (CSR3; maximal slope): 22.47
O=C1c2c(O)ccc(O)c2C(=O)c2c(NCCNCCO)ccc(NCCNCCO)c21 [FIMM000490],1810 nM,14.9,–

# From publication PMC7280029, “Development of FRET‐based high‐throughput screening for viral RNase III inhibitors” (Molecular Plant Pathology, 2020)
